Test results from ChEMBL document CHEMBL3988442, “University of Dundee, Small-Polar-MMV Screening Library” (2021).
Several values for one entry are separate records, joined by “and”; a condition that tells them apart may be missing. Equal values may be shown once.

Test system: Leishmania donovani
Experiment: Leishmania intramacrophage assay
Format: functional, organism-based
Settings: for IC50: Leishmania donovani

| Compound | pIC50 | IC50 [µM] |
| --- | --- | --- |
| Cc1cc(C(F)(F)F)nc(N2CCN3CCCC3C2)n1 (configuration not stated) | – | > 50.1 |
| c1cncc(COC[C@H]2CC[C@H]3[C@H](CCN3Cc3nccs3)O2)c1 | – | > 50.1 |
| CN(CC1CC1)c1ccc2ccc(C(=O)NCCc3ccccc3)cn12 | – | > 50.1 |
| O=C(C1CCC1)N1CCC(c2ncc3c(n2)CCNC3)CC1 | – | > 50.1 |
| Cc1ccc(-c2cc(C(F)(F)F)nc(N3CCOCC3)n2)s1 | – | > 50.1 |
| FC1(F)CCN(c2ccccc2)CC12CCN(c1ncccn1)C2 (configuration not stated) | – | > 50.1 |
| OC(c1ccccc1)C1CCN(Cc2csc(-c3ncccn3)n2)CC1 (configuration not stated) | – | > 50.1 |
| CCN(CC)c1ccc2ccc(C(=O)N(C)C)cn12 | – | > 50.1 |
| CC(C)n1nnc2c(sc3nc(N4CCOCC4)c4c(c32)CCC4)c1=O | – | > 50.1 |
| FC1(F)CCN(Cc2cccnc2)CC12CCN(c1ccccn1)C2 (configuration not stated) | – | > 50.1 |
| Cn1cc(CN2CCC(F)(F)C3(CCN(c4ncc(F)cn4)C3)C2)cn1 (configuration not stated) | – | > 50.1 |
| CC(C)N1CCN(c2ccc3ccc(C(=O)NC4CCCC4)cn23)CC1 | – | > 50.1 |
| CN1CCN(C2COC3(CCN(Cc4cccs4)CC3)C2)CC1 (configuration not stated) | – | > 50.1 |
| CN1CCN(C2COC3(CCN(CC4CC4)CC3)C2)CC1 (configuration not stated) | – | > 50.1 |
| COCCN(C)C1COC2(CCN(Cc3cccc(F)c3)CC2)C1 (configuration not stated) | – | > 50.1 |
| CCN1CCCC(O)(c2nc(C)c(CCOc3ccccc3Cl)s2)CC1 (configuration not stated) | – | > 50.1 |
| Cc1sc2nc(C(F)(F)F)nc(N3CCN(S(C)(=O)=O)CC3)c2c1C | – | > 50.1 |
| FC1(F)CCN(Cc2ccncc2)CC12CCN(c1cnccn1)C2 (configuration not stated) | – | > 50.1 |
| CC(=O)c1sc2nc3c(c(C(F)(F)F)c2c1N)CN(C(C)=O)CC3 | – | > 50.1 |
| CCCN(CCOC)c1nc(C)nc2sccc12 | – | > 50.1 |
| CC1CCCN(CC(=O)N2CCC(c3ncc4c(n3)CCNC4)CC2)C1 (configuration not stated) | – | > 50.1 |
| COc1ncccc1CNC(=O)C1=NN(c2ccccc2)C(=O)CN1 | – | > 50.1 |
| CN(C)C(=O)CNC(=O)c1ccc2ccc(N(C)CC3CC3)n2c1 | – | > 50.1 |
| Cn1cc(CN2CCC(F)(F)C3(CCN(c4ncccn4)C3)C2)cn1 (configuration not stated) | – | > 50.1 |
| CC(C)OCCN1CCC(N2CCN(C)C2=O)CC1 | – | > 50.1 |
| Cc1ccc2c(n1)N(Cc1cccnc1)CCN(Cc1cnn(C)c1)C2 | – | > 50.1 |

| Compound | pIC50 | IC50 [µM] |
| --- | --- | --- |
| CN(Cc1ccncc1)C1COC2(CCN(Cc3ccsc3)CC2)C1 (configuration not stated) | – | > 50.1 |
| Cc1cc(C(F)(F)F)nc(N(C)Cc2c(C)noc2C)n1 | – | > 50.1 |
| CC(Cn1ccnc1)NCc1cc(Br)c2c(c1)OCO2 (configuration not stated) | – | > 50.1 |
| CNS(=O)(=O)c1cccc(C(C)NCc2cccc(OC)c2)c1 (configuration not stated) | – | > 50.1 |
| OCCN1CCC(F)(F)C2(CCN(c3cccnc3)C2)C1 (configuration not stated) | – | > 50.1 |
| CCc1ccc(CN2CCC3(CC2)CC(N2CCN(C)CC2)CO3)cc1.O=C(O)C(F)(F)F (configuration not stated) | 4.908 and 5.404 | – |
| COc1ccc(CNc2cnn(C)c(=O)c2Cl)cc1 | – | > 50.1 |
| Cc1cnc(N2CCCC3(CCCN(C)C3)C2)nc1 (configuration not stated) | – | > 50.1 |
| O=C(NCCCN1CCCC1=O)c1ccc(-n2ccc3ccccc32)s1 | – | > 50.1 |
| CNC(=O)C1CCCN(c2nc(-c3ccco3)nc3c2CCNCC3)C1 (configuration not stated) | – | > 50.1 |
| COc1cccc(CNCC2CN(C)CCO2)c1 (configuration not stated) | – | > 50.1 |
| Cc1nc(NCc2nnc(C)n2C)c2c(CC(C)C)csc2n1 | – | > 50.1 |
| Cc1ccc(N2CCC3(CN(Cc4cccs4)CCC3(F)F)C2)nn1 (configuration not stated) | – | > 50.1 |
| CN(C)C(=O)N1CCN(c2ccc3ccc(C(=O)NC4CC4)cn23)CC1 | – | > 50.1 |
| CN(Cc1ccncc1)C1COC2(CCN(Cc3ccco3)CC2)C1 (configuration not stated) | – | > 50.1 |
| CC(=O)NC1CCCN(Cc2csc(-c3ncccn3)n2)C1 (configuration not stated) | – | > 50.1 |
| O=C(CC1CCCCC1)N1CCC(c2ncc3c(n2)CCNC3)CC1 | – | > 50.1 |
| COCc1ccc(CNC(=O)C2=NN(c3ccccc3)C(=O)CN2)cc1 | – | > 50.1 |
| CC(NCc1ccsc1)c1ccc2c(c1)NC(=O)CO2 (configuration not stated) | – | > 50.1 |
| Cn1ncc2c1CN(Cc1ccc(F)cc1)CC2COCC1CC1 (configuration not stated) | – | > 50.1 |
| Clc1ccccc1C1(c2ccnc(-c3ncccn3)n2)CCNCC1 | – | > 50.1 |
| CCC(CO)NC(=O)c1ccc2ccc(N(C)CC3CC3)n2c1 (configuration not stated) | – | > 50.1 |
| Cc1ccc(N2CCC3(CN(Cc4ccncc4)CCC3(F)F)C2)nn1 (configuration not stated) | – | > 50.1 |
| CCn1cc(-c2cc(C(F)F)nc3sc(C(N)=O)c(N)c23)c(C)n1 | – | > 50.1 |
| O=C(NC1COC2(CCN(Cc3ccccn3)CC2)C1)c1ccccn1 (configuration not stated) | – | > 50.1 |
| CC(C(=O)NCc1ccnc(N(C)C)c1)n1cccn1 (configuration not stated) | – | > 50.1 |

| Compound | pIC50 | IC50 [µM] |
| --- | --- | --- |
| Cc1nc(N2C[C@@H](CN3CCCN(C)CC3)[C@@H](CO)C2)c2ccsc2n1 | – | > 50.1 |
| Cc1nc(NCc2cccnc2)c2c(n1)c(C)nn2C | – | > 50.1 |
| O=C(NCC(F)(F)F)c1ccncc1 | – | > 50.1 |
| CC(Cn1cccn1)NC(=O)NCCc1cccnc1 (configuration not stated) | – | > 50.1 |
| NS(=O)(=O)NCC1(c2ccccc2Br)CC1 | – | > 50.1 |
| O=C(c1c[nH]cn1)N1CCC(F)(F)C2(CCN(c3cnccn3)C2)C1 (configuration not stated) | – | > 50.1 |
| Cc1cnc(N2CCc3onc(COc4cccnc4)c3C2)nc1 | – | > 50.1 |
| CCOCCN(CCOCC)c1nc(C)nc2sccc12 | – | > 50.1 |
| CCN1CCCC(O)(c2nc(C)c(CCOc3ccccc3F)s2)CC1 (configuration not stated) | – | > 50.1 |
| COCCNC(=O)c1ccc2ccc(N3CCN(CC4CC4)CC3)n2c1 | – | > 50.1 |
| OCc1ccncc1NCc1cnc(-c2ccccn2)s1 | – | > 50.1 |
| CCS(=O)(=O)c1ccc(N2CCC(NC(=O)CCC(C)C)CC2)cc1 | – | > 50.1 |
| COc1cccc(Nc2nc(-c3ccncc3)nc3c2CNCC3)c1.Cl | 4.645 and 4.976 | – |
| O=C(O)C1CCCN1c1nc(C2CC2)cc(C(F)(F)F)n1 (configuration not stated) | – | > 50.1 |
| Cn1cc(CN2CCC(F)(F)C3(CCN(c4cccnc4)C3)C2)cn1 (configuration not stated) | – | > 50.1 |
| NC(=O)C1CCN(c2cncc(-n3cccn3)n2)CC1 | – | > 50.1 |
| O=C(c1ccc2ccc(N3CCN(CC4CC4)CC3)n2c1)N1CCCO1 | – | > 50.1 |
| Cc1nc(NCc2noc(C3CCCO3)n2)c2ccsc2n1 (configuration not stated) | – | > 50.1 |
| Cn1ccc(C(=O)N2CCCC(Cc3cccc4ncccc34)C2)n1 (configuration not stated) | – | > 50.1 |
| CC(O)CN1CCN(Cc2csc(-c3ncccn3)n2)CC1 (configuration not stated) | – | > 50.1 |
| CCN(CC)c1ccc2ccc(C(=O)N(CCOC)CCOC)cn12 | – | > 50.1 |
| Cc1ccc(CN2CCC3(CC2)CC(N2CCN(C)CC2)CO3)s1 (configuration not stated) | – | > 50.1 |
| CN(Cc1ccccc1)C1COC2(CCN(Cc3nccs3)CC2)C1 (configuration not stated) | – | > 50.1 |
| CN(C)C1COC2(CCN(Cc3ccc4c(c3)OCO4)CC2)C1 (configuration not stated) | – | > 50.1 |

More lines, now with the values ahead:

| pIC50 | IC50 [µM] | Compound |
| --- | --- | --- |
| 4.482 | 24.2 | Cc1nc(C2(O)CCCNCC2)sc1CCOc1ccccc1.Cl (configuration not stated) |
| – | > 50.1 | Cn1ccnc1CN1CCC(F)(F)C2(CCN(c3cccnc3)C2)C1 (configuration not stated) |
| – | > 50.1 | Cn1nc(COc2cccnc2)c2c1CCN(CC1CC1)C2 |
| – | > 50.1 | COCCN(Cc1cnn(C)c1)c1nc(C)nc2sccc12 |
| – | > 50.1 | CN(C)C(=O)c1ccc2ccc(N3CCN(CC4CC4)CC3)n2c1 |
| – | 7.08 | CCOc1cc(CNCCCn2ccnc2)cc(Cl)c1OCC |
| – | > 50.1 | CN(c1ncnc2c1CCC2)C1CCCN(c2cccnn2)C1 (configuration not stated) |
| – | > 50.1 | c1ccc(C2CCN(c3cncc(-n4cccn4)n3)CC2)cc1 |
| – | > 50.1 | O=C(CO)N1CCC(F)(F)C2(CCN(c3ccccc3)C2)C1 (configuration not stated) |
| – | > 50.1 | CC(NC(=O)NCCCn1ccnc1)c1ccc2c(c1)OCCCO2 (configuration not stated) |
| – | > 50.1 | COc1ccccc1C1(CNc2nnc(C)c(C)c2C#N)CCOCC1 |
| – | > 50.1 | CN(Cc1ccncc1)C1COC2(CCN(Cc3cccs3)CC2)C1 (configuration not stated) |
| – | > 50.1 | CC(=O)N1CCc2nc3sc(C(N)=O)c(N)c3c(C(F)(F)F)c2C1 |
| – | > 50.1 | CCn1nccc1CN(C)C(=O)Cn1cc2c(n1)c(C)nn2CC |
| – | > 50.1 | Cc1sc2nc(C(F)(F)F)nc(N3CCN(C)CC3)c2c1C |
| – | > 50.1 | FC1(F)CCN(Cc2ccncc2)CC12CCN(Cc1ccccn1)C2 (configuration not stated) |
| – | > 50.1 | O=C(O)C1CCCN1c1nc(-c2ccc(Cl)c(Cl)c2)cc(C(F)(F)F)n1 (configuration not stated) |
| – | > 50.1 | COCc1noc(CNc2nc(C3CCCC3)nc3c2CCNCC3)n1 |
| – | > 50.1 | CCn1ncc(-c2cc(C(F)F)nc3sc(C(N)=O)c(N)c23)c1C |
| – | > 50.1 | Cc1nn(C)cc1-c1cc(C(F)F)nc2sc(C(N)=O)c(N)c12 |
| – | > 50.1 | Cc1c(C(=O)O)sc2nc(Cc3ccccc3)nc(N)c12 |
| – | > 50.1 | C1CCc2nnc(CNc3nc(C4CC4)nc4c3CCNCC4)n2CC1 |

| pIC50 | IC50 [µM] | Compound |
| --- | --- | --- |
| – | > 50.1 | O=C(NCCN1CCOCC1)c1ccc(-n2ccc3ccccc32)s1 |
| 4.867 | 17.8 | CN1CCC(N(Cc2ccco2)S(=O)(=O)c2cc(Br)ccc2Br)CC1 |
| – | > 50.1 | Cc1sc2nc(CCN)nc(N3CCN(S(C)(=O)=O)CC3)c2c1C |
| – | > 50.1 | FC1(F)CCN(Cc2ccccn2)CC12CCN(c1ncccn1)C2 (configuration not stated) |
| – | > 50.1 | Cc1cc(N(C)CC2COc3ccccc3O2)nc(N)n1 (configuration not stated) |
| – | > 50.1 | COc1ccc(C(NCc2cccc(C#N)c2)C(C)C)cc1 (configuration not stated) |
| – | 24.2 | COCCNc1nc2c(c(NCCc3cccs3)n1)CCNCC2 |
| – | > 50.1 | Cc1cc(N(C)CC2COc3ccccc3O2)nc(C)n1 (configuration not stated) |
| – | > 50.1 | CN(CCc1noc(C2CC2)n1)C(=O)CN1C(=O)COc2ccccc21 |
| 4.789 | 13 | CC(C)Nc1nc2c(c(NC3CC3)n1)CCN(C1CCOCC1)CC2 |
| 5.277 | 4.47 | COc1cccc(Nc2nc(N3CCCC3)nc3c2CNCC3)c1.Cl |
| 4.694 | 21.5 | CCC(N)C(=O)N1CCC(OCc2ccc(Cl)c(Cl)c2)CC1.Cl (configuration not stated) |
| – | 24.4 | CCN(CC)c1ccc2ccc(C(=O)N3CCCCO3)cn12 |
| – | 24.6 | CCOc1cc(CNCCCn2ccnc2)cc(Cl)c1OC |
| 4.688 | 19.2 | CC(C)COc1cccc(-c2nc3c([nH]2)CCNC3)c1 |
| 4.744 | 22.5 | COc1ccc(-c2cc(CNc3ncnc4c3CCNCC4)no2)cc1 |
| 4.89 | 21.5 | CN(Cc1cc2cc(F)ccc2[nH]1)c1cc(C2CCCNC2)ncn1 (configuration not stated) |
| 4.491 | 20.8 | NCC1Cc2cc(Cl)cc(-c3cncc(C(=O)N4CCCCC4)n3)c2O1 (configuration not stated) |
| – | 44.3 | Cc1nc2c(c(NCCc3nc4c(s3)CCCC4)n1)CCNCC2 |
| 4.995 | 10.7 | Cc1c(CN2CC[C@@H](N3CCC(O)CC3)[C@H](O)C2)[nH]c2ccc(Cl)cc12 |
| 4.913 | 17.9 | Cc1nc2c(c(NCc3ccc(-c4ccccn4)s3)n1)CCNCC2 |
| 4.762 | 19.1 | COc1ccccc1CN(C)C(=O)CN1CC(n2nc(C)cc2C)C1 |
